According to patent publication US9994556B2, “Triazole modified coumarin and biphenyl amide-based HSP90 inhibitors” (THE UNIVERSITY OF KANSAS, priority 2014, dated 2018):
Where two headings read alike, the source gives them in different places.

How the values were obtained:
Assay type in all cases: cell-based
SKBr3 cells = assay: MTS/PMS cell viability assay, SKBr3; settings: Homo sapiens, SK-BR-3
Procedure: (§1) a) MTS/PMS Cell Viability Assay (SKBr3 and MCF-7 Cells)
(§2) Cells were maintained in a 1:1 mixture of Advanced DMEM/F12 (Gibco) supplemented with non-essential amino acids, L-glutamine (2 mM), streptomycin (500 μg/mL), penicillin (100 units/mL), and 10% FBS. Cells were grown to confluence in a humidified atmosphere (37° C., 5% CO2), seeded (2000/well, 100 μL) in 96-well plates, and allowed to attach overnight. Compound at varying concentrations in DMSO (1% DMSO final concentration) was added, and cells were returned to the incubator for 72 hr. At 72 hr, the number of viable cells was determined using an MTS/PMS cell proliferation kit (Promega) per the manufacturer's instructions. Cells incubated in 1% DMSO were used at 100% proliferation, and values were adjusted accordingly. IC50 values were calculated from separate experiments performed in triplicate using GraphPad Prism.

JMAR cell line = assay: Promega CellTiter-Glo (CTG) luminescent assay, JMAR; settings: 72 hr, mean ± standard deviation
Procedure: (§3) b) Promega CellTiter-Glo (CTG) Luminescent Assay
(§4) Antiproliferative activities against MDA-MB-468LN, MDA1986 and JMAR cell lines were performed with 384-well white plates with the Promega CellTiter-Glo (CTG) luminescent assay with 72 hr compound treatment. Data analysis was performed using GraphPad Prism. Selected data were further checked with MTS/PMS cell viability assay with 96-well plates, which correlated well with Promega CellTiter-Glo luminescent assay.

PC3-MM2 cells = assay: Sulforhodamine B assay, PC3-MM2; settings: Homo sapiens, PC3MM2, mean ± standard deviation
Procedure: (§5) c) Sulforhodamine B Assay
(§6) The sulforhodamine B assay is used to measure drug-induced cytotoxicity and cell proliferation for large-scale drug-screening applications. Its principle is based on the ability of the protein dye sulforhodamine B to bind electrostatically on pH dependent protein basic amino acid residues of trichloroacetic acid-fixed cells. The aim is to evaluate samples showing selective growth inhibition or cell killing of particular tumor cell lines.
(§7) The SRB assay is performed by treating cells using a 10 point dose-response curve. The cells are fixed with trichloroacetic acid solution and stained with sulforhodamine B dye. The stained cells are then solubilized with 10 mM Tris buffer and read for absorbance at 565 nm.
(§8) Percentage growth is calculated at each of the drug concentration levels using the absorbance raw data.
(§9) Percentage growth inhibition is calculated as: [(Ti−Tz)/(C−Tz)]×100 for concentrations for which Ti≥Tz. [(Ti−Tz)/(Tz)]×100 for concentrations for which Ti<Tz.
(§10) Ti=Absorbance of wells at a given drug concentration level.
(§11) Tz=Absorbance time zero wells
(§12) C=Absorbance of untreated wells (media and cells only)
(§13) After growth inhibition values have been calculated, the data is plotted on Graphpad Prism software. Data is entered and plotted on a sigmoidal dose-response curve using non-linear regression.

MDA-MB-468LN cell line = assay: Promega CellTiter-Glo (CTG) luminescent assay, MDA-MB-468LN; settings: Homo sapiens, 72 hr, mean ± standard deviation
Procedure: as §3, §4

MDA1986 cell line = assay: Promega CellTiter-Glo (CTG) luminescent assay, MDA1986
Procedure: as §3, §4

LNCaP cells = assay: Sulforhodamine B assay, LNCaP; settings: Homo sapiens, mean ± standard deviation
Procedure: as §5, §6, §7, §8, §9, §10, §11, §12, §13

MCF-7 cells = assay: MTS/PMS cell viability assay, MCF-7; settings: Homo sapiens, MCF7, 72 hr, mean ± standard deviation, read-out: IC50 MCF-7
Procedure: as §1, §2

[1] = Table 1 coumarin-based triazoles, 72 hr, mean ± standard deviation, at least two experiments in triplicate, read-out: IC50 SKBr3
[2] = Table 1 coumarin-based triazoles
[3] = Table 1 coumarin-based triazoles, 72 hr, mean ± standard deviation, read-out: IC50 MDA1986
[4] = Table 2 biphenyl triazole analogues, 72 hr, mean ± standard deviation, read-out: IC50 SKBr3
[5] = Table 2 biphenyl triazole analogues
[6] = Table 2 biphenyl triazole analogues, 72 hr, mean ± standard deviation, read-out: IC50 MDA1986

SMILES | IC50 (SKBr3 cells; [1]) [nM] | IC50 (PC3-MM2 cells; [2]) [nM] | IC50 (MDA-MB-468LN cell line; [2]) [nM] | IC50 (LNCaP cells; [2]) [nM] | IC50 (MCF-7 cells; [2]) [nM] | IC50 (SKBr3 cells; read-out: IC50 against SKBr3 cell line) [nM] | IC50 (SKBr3 cells; [4]) [nM] | IC50 (PC3-MM2 cells; [5]) [nM] | IC50 (MDA-MB-468LN cell line; [5]) [nM] | IC50 (LNCaP cells; [5]) [nM] | IC50 (MCF-7 cells; [5]) [nM] | IC50 (JMAR cell line; [2]) [nM] | IC50 (MDA1986 cell line; [3]) [nM] | IC50 (MDA1986 cell line; read-out: IC50 against MDA1986 cell line) [nM] | IC50 (JMAR cell line; [5]) [nM] | IC50 (MDA1986 cell line; [6]) [nM]
Cc1c(OC2CCN(C)CC2)ccc2cc(NC(=O)c3cn(-c4ccc(Cl)cc4)nn3)c(=O)oc12 [4c, 1-(4-chlorophenyl)-N-(8-methyl-7-((1-methylpiperidin-4-yl)oxy)-2-oxo-2H-chromen-3-yl)-1H-1,2,3-triazole-4-carboxamide] | 580 ± 30 | 2790 ± 490 | 810 ± 150 | 2450 ± 470 | 2040 ± 250 | – | – | – | – | – | – | 430 ± 380 | 180 ± 110 | – | – | –
Cc1c(OC2CCN(C)CC2)ccc2cc(NC(=O)c3cn(-c4ccc(Br)cc4)nn3)c(=O)oc12 [4d, 1-(4-Bromophenyl)-N-(8-methyl-7-((1-methylpiperidin-4-yl)oxy)-2-oxo-2H-chromen-3-yl)-1H-1,2,3-triazole-4-carboxamide] | 1380 ± 50 | 3810 ± 4990 | 2800 ± 500 | 15200 ± 9190 | 5070 ± 1860 | – | – | – | – | – | – | 3600 ± 630 | 2900 ± 330 | – | – | –
Cc1ccc(-n2cc(C(=O)Nc3cc4ccc(OC5CCN(C)CC5)c(C)c4oc3=O)nn2)cc1 [4e, 1-(4-methylphenyl)-N-(8-methyl-7-((1-methylpiperidin-4-yl)oxy)-2-oxo-2H-chromen-3-yl)-1H-1,2,3-triazole-4-carboxamide] | 1080 ± 50 | > 100000 | 4000 ± 1920 | > 100000 | 1380 ± 70 | – | – | – | – | – | – | 3640 | 290 | – | – | –
Cc1c(OC2CCN(C)CC2)ccc2cc(NC(=O)c3cn(Cc4ccc([N+](=O)[O-])cc4)nn3)c(=O)oc12 [4l, 1-(4-Nitrobenzyl)-N-(8-methyl-7-((1-methylpiperidin-4-yl)oxy)-2-oxo-2H-chromen-3-yl)-1H-1,2,3-triazole-4-carboxamide] | 380 | 2490 ± 320 | 810 ± 230 | 1280 ± 710 | 640 | – | – | – | – | – | – | 260 ± 340 | 180 ± 220 | – | – | –
Cc1c(OC2CCN(C)CC2)ccc2cc(NC(=O)c3cn(Cc4cccc(Cl)c4)nn3)c(=O)oc12 [4n, 1-(3-Chlorobenzyl)-N-(8-methyl-7-((1-methylpiperidin-4-yl)oxy)-2-oxo-2H-chromen-3-yl)-1H-1,2,3-triazole-4-carboxamide] | 1060 ± 10 | 6000 ± 1130 | 1140 ± 1170 | 3030 ± 50 | 1680 ± 10 | – | – | – | – | – | – | 190 ± 100 | 230 ± 220 | – | – | –
Cc1c(OC2CCN(C)CC2)ccc2cc(NC(=O)c3cn(Cc4ccccc4Cl)nn3)c(=O)oc12 [4p, 1-(2-Chlorobenzyl)-N-(8-methyl-7-((1-methylpiperidin-4-yl)oxy)-2-oxo-2H-chromen-3-yl)-1H-1,2,3-triazole-4-carboxamide] | 1300 ± 70 | 6660 ± 5440 | 2100 ± 520 | > 100000 | 990 ± 80 | – | – | – | – | – | – | 3700 ± 850 | 3200 ± 1370 | – | – | –
Cc1c(OC2CCN(C)CC2)ccc2cc(NC(=O)c3cn(CCc4ccccc4)nn3)c(=O)oc12 [4r, N-(8-methyl-7-((1-methylpiperidin-4-yl)oxy)-2-oxo-2H-chromen-3-yl)-1-phenethyl-1H-1,2,3-triazole-4-carboxamide] | 130 ± 10 | 1400 ± 40 | 990 ± 100 | 2360 ± 530 | 550 ± 10 | 130 | – | – | – | – | – | 740 ± 860 | 110 ± 300 | ~110 | – | –
Cc1c(OC2CCN(C)CC2)ccc2cc(NC(=O)c3cn(CCCc4ccccc4)nn3)c(=O)oc12 [4s, N-(8-methyl-7-((1-methylpiperidin-4-yl)oxy)-2-oxo-2H-chromen-3-yl)-1-(3-phenylpropyl)-1H-1,2,3-triazole-4-carboxamide] | 1730 ± 50 | – | – | – | 1650 ± 30 | – | – | – | – | – | – | – | – | – | – | –
CN1CCC(Oc2ccc(-c3ccc(NC(=O)c4cn(-c5ccccc5)nn4)cc3)cc2)CC1 [5a, N-(4′-((1-methylpiperidin-4-yl)oxy)-[1,1′-biphenyl]-4-yl)-1-phenyl-1H-1,2,3-triazole-4-carboxamide] | – | – | – | – | – | – | 1140 ± 100 | 4260 ± 5590 | 830 ± 160 | 3890 ± 1090 | 1440 ± 180 | – | – | – | 2200 ± 240 | 1300 ± 90
CN1CCC(Oc2ccc(-c3ccc(NC(=O)c4cn(CCc5ccccc5)nn4)cc3)cc2)CC1 [5c, N-(4′-((1-methylpiperidin-4-yl)oxy)-[1,1′-biphenyl]-4-yl)-1l-phenethyl-1H-1,2,3-triazole-4-carboxamide] | – | – | – | – | – | – | 190 ± 20 | 830 ± 340 | 360 ± 40 | 430 ± 220 | 380 ± 100 | – | – | – | 580 ± 460 | 100 ± 230

Second part, led by results:

IC50 (SKBr3 cells; [1]) [nM] | IC50 (PC3-MM2 cells; [2]) [nM] | IC50 (MDA-MB-468LN cell line; [2]) [nM] | IC50 (LNCaP cells; [2]) [nM] | IC50 (MCF-7 cells; [2]) [nM] | IC50 (SKBr3 cells; read-out: IC50 against SKBr3 cell line) [nM] | IC50 (SKBr3 cells; [4]) [nM] | IC50 (PC3-MM2 cells; [5]) [nM] | IC50 (MDA-MB-468LN cell line; [5]) [nM] | IC50 (LNCaP cells; [5]) [nM] | IC50 (MCF-7 cells; [5]) [nM] | SMILES | IC50 (JMAR cell line; [2]) [nM] | IC50 (MDA1986 cell line; [3]) [nM] | IC50 (MDA1986 cell line; read-out: IC50 against MDA1986 cell line) [nM] | IC50 (JMAR cell line; [5]) [nM] | IC50 (MDA1986 cell line; [6]) [nM]
1140 ± 190 | 3670 ± 1380 | 2200 ± 300 | 4650 ± 710 | 1440 ± 310 | – | – | – | – | – | – | Cc1c(OC2CCN(C)CC2)ccc2cc(NC(=O)c3cn(Cc4ccc(Cl)cc4)nn3)c(=O)oc12 [4g, 1-(4-Chlorobenzyl)-N-(8-methyl-7-((1-methylpiperidin-4-yl)oxy)-2-oxo-2H-chromen-3-yl)-1H-1,2,3-triazole-4-carboxamide] | 1700 ± 200 | 1700 ± 520 | – | – | –
730 ± 10 | 3800 ± 1420 | 2100 ± 600 | 4960 ± 670 | 1360 ± 80 | – | – | – | – | – | – | Cc1c(OC2CCN(C)CC2)ccc2cc(NC(=O)c3cn(Cc4ccc(Br)cc4)nn3)c(=O)oc12 [4h, 1-(4-Bromobenzyl)-N-(8-methyl-7-((1-methylpiperidin-4-yl)oxy)-2-oxo-2H-chromen-3-yl)-1H-1,2,3-triazole-4-carboxamide] | 1600 ± 310 | 2000 ± 500 | – | – | –
1210 ± 70 | 7320 ± 5440 | 2400 ± 250 | 7240 ± 1020 | 1500 ± 190 | – | – | – | – | – | – | Cc1ccc(Cn2cc(C(=O)Nc3cc4ccc(OC5CCN(C)CC5)c(C)c4oc3=O)nn2)cc1 [4i, 1-(4-Methylbenzyl)-N-(8-methyl-7-((1-methylpiperidin-4-yl)oxy)-2-oxo-2H-chromen-3-yl)-1H-1,2,3-triazole-4-carboxamide] | 1800 ± 950 | 1500 ± 200 | – | – | –
1310 ± 200 | 7850 ± 420 | 3400 ± 1270 | > 100000 | 1420 ± 140 | – | – | – | – | – | – | COc1ccc(Cn2cc(C(=O)Nc3cc4ccc(OC5CCN(C)CC5)c(C)c4oc3=O)nn2)cc1 [4j, 1-(4-Methoxybenzyl)-N-(8-methyl-7-((1-methylpiperidin-4-yl)oxy)-2-oxo-2H-chromen-3-yl)-1H-1,2,3-triazole-4-carboxamide] | 6700 | 2600 ± 300 | – | – | –
450 ± 30 | 2370 | 740 ± 220 | 1840 | 1220 ± 70 | – | – | – | – | – | – | Cc1c(OC2CCN(C)CC2)ccc2cc(NC(=O)c3cn(Cc4ccc(C(C)(C)C)cc4)nn3)c(=O)oc12 [4k, 1-(4-tert-Butylbenzyl)-N-(8-methyl-7-((1-methylpiperidin-4-yl)oxy)-2-oxo-2H-chromen-3-yl)-1H-1,2,3-triazole-4-carboxamide] | 580 ± 140 | 340 ± 90 | – | – | –
1080 ± 10 | 8820 ± 1140 | 2600 ± 6120 | 3310 | 1340 ± 190 | – | – | – | – | – | – | Cc1c(OC2CCN(C)CC2)ccc2cc(NC(=O)c3cn(Cc4ccc(F)cc4)nn3)c(=O)oc12 [4m, 1-(4-Fluorobenzyl)-N-(8-methyl-7-((1-methylpiperidin-4-yl)oxy)-2-oxo-2H-chromen-3-yl)-1H-1,2,3-triazole-4-carboxamide] | 2380 ± 5380 | 1770 ± 4100 | – | – | –
